Here are results for 23 molecules from patent US20230095520A1, “PHARMACEUTICAL COMPOSITION FOR PREVENTING OR TREATING CANCER COMPRISING AZOLE DERIVATIVES OR PHARMACEUTICALLY ACCEPTABLE SALT THEREOF” (Yungjin Pharm. Co., Ltd., priority 2020, published 2023).

One test concerns MDA-MB-468 cells. The test can be described thus: MDA-MB-468 cell proliferation inhibition (MTT). It counts as cell-based. The note with it: for Inhibition rate (%): MDA-MB-468, compound concentration 100 nM; for IC50: MDA-MB-468 proliferation. The procedure: MDA-MB-468 cells are one of the triple-negative breast cancer (TNBC: negative for the expression of estrogen receptor, progesterone receptor and HER2) cells known as a malignant tumor that is difficult to diagnose at an early stage and has a high metastatic capacity, and these cells are used to test inhibition of proliferation and survival of breast cancer cells.
MDA-MB-468 cells cultured in a 96-well cell culture plate were treated with the compound of the present invention and cultured for 72 hours. Thereafter, the antiproliferative effect of the compound was assayed by the MTT method using a tetrazolium salt.

For a further test, the system named is MV-4-11 cells. Description: MV-4-11 cell proliferation inhibition (CCK-8). It counts as cell-based. The settings on record: 72 hours; for Inhibition rate (%): MV-4-11, compound concentration 100 nM; for IC50 / inhibition at 0.1 µM: Homo sapiens; for IC50: MV4-11, MV-4-11 proliferation; for inhibition at 0.1 µM: MV4-11, MV-4-11, compound concentration 100 nM, read-out: Inhibition rate (%). On the procedure: MV-4-11 cells are one of the acute myeloid leukemia cells with a Fms-like tyrosine kinase (FLT3) gene mutation, and these cells are used to test inhibition of proliferation and survival of leukemia cells.
MV-4-11 cells cultured in a 96-well cell culture plate were treated with the compound of the present invention and cultured for 72 hours. Thereafter, the antiproliferative effect of the compound was assayed by the CCK-8 method using a tetrazolium salt.

For test [1], the target named is T1, Recombinant purified human CDK7 (Homo sapiens, UniProt P50613).
T1 construct: purchased ThermoFisher PV3868
T1 sequence (P50613 whole entry): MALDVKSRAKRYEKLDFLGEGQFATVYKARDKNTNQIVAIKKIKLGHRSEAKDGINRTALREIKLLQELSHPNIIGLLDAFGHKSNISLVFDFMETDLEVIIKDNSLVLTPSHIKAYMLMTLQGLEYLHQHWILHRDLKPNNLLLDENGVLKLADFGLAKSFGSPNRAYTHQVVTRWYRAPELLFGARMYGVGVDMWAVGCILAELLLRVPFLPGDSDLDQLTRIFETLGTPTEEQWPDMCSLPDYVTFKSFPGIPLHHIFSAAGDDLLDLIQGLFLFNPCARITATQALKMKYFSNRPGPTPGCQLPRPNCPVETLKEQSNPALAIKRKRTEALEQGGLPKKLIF
T1 sequence (P51946 whole entry partner): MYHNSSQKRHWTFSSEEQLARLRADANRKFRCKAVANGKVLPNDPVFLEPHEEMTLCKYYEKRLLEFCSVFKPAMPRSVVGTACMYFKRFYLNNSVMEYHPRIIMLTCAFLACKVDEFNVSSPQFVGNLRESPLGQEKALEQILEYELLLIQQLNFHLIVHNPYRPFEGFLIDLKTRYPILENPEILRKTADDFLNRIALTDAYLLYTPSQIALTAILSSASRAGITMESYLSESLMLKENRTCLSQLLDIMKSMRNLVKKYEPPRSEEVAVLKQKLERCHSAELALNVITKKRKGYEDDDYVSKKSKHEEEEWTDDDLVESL
T1 sequence (P51948 whole entry partner): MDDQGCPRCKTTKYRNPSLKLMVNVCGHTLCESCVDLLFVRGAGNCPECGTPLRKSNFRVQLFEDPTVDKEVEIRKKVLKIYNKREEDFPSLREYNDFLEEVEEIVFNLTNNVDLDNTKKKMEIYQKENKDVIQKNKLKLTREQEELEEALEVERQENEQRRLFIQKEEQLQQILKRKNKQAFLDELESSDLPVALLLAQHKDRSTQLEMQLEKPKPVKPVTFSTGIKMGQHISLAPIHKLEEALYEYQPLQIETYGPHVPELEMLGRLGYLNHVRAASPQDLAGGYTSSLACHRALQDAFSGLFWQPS
Description: CDK7 activity inhibition, ADP-Glo kinase assay. It counts as biochemical. The settings on record: ATP 90 μM, MBP substrate, 2 hours 30° C. The procedure:
Recombinant purified human CDK7 (ThermoFisher, PV3868) and ADP Glo Kinase Assay Kit (Promega, V9102) were used. CDK7 was diluted with 1× kinase reaction buffer (40 mM Tris-Cl, pH 7.5, 20 mM MgCl2, 0.1 mg/ml BSA and 50 μM DTT) and added to a 96 well plate (CDK7 final concentration per reaction: 50 ng). It was finally treated with the compound of the present invention to a 1% DMSO aqueous solution, and a substrate cocktail containing ATP (final concentration of 90 μM) and 0.2 μg/μl MBP (myelin basic protein) in a total of 25 μl reaction mass was added to a 96 well plate, thereby initiating the enzymatic reaction. After 2 hours of incubation (30° C.), an equal volume (25 μl per reaction) of ADP Glo was added and incubated at room temperature for 60 minutes (30° C.). Thereafter, kinase detection reagent (50 μl per reaction) was added and incubated at room temperature for 30 minutes (30° C.). The kinase activity was measured by the chemiluminescence method according to the ADP Glo Kinase Assay Kit instruction manual, and the CDK7 inhibitory activity of the compounds of the present invention was calculated.

The subject of another test is HepG2 cells. The test can be described thus: HepG2 cell proliferation inhibition (CCK-8). It counts as cell-based. The note with it: Homo sapiens, HepG2, 72 h. On the procedure:
HepG2 cells are human hepatocellular carcinoma cells. In order to evaluate the efficacy of inhibiting the proliferation in HepG2 cells, HepG2 cells were treated with the compounds of the present invention, and the proliferation level was measured as follows.
The cells were cultured with a culture medium of MEM (Welgene)+10% FBS (Gibco)+1% penicillin/streptomycin (Gibco) at 37° C. in a humidified condition in the presence of 5% CO2. HepG2 cells cultured in a 96-well cell culture plate were treated with the compound of the present invention and cultured for 72 hours.

For the molecule `C=CC(=O)Nc1ncc(-c2cccc([C@H](C)C(=O)Nc3ncc(C4CC4)s3)c2)cn1` [Compound 27], the “Inhibition rate (%)” value is reported as 74% in the test on MDA-MB-468 cells (72 hours) and 100% in the test with MV-4-11 cells.
Regarding `CCc1cnc(NC(=O)[C@@H](C)c2cccc(-c3cnc(NC(=O)/C=C/CN(C)C)c(F)c3)c2)s1` [Compound 130, (S,E)-4-(dimethylamino)-N-(5-(3-(1-((5-ethylthiazol-2-yl)amino)-1-oxopropan-2-yl)phenyl)-3-fluoropyridin-2-yl)but-2-enamide], the half-maximal inhibitory concentration (IC50) in test [1] was 4 nM; with MDA-MB-468 cells (Homo sapiens, MDA-MB-468, 72 h), at most 14 nM; in the test with MDA-MB-468 cells (72 hours), 7 nM.
In the case of `CC(C(=O)Nc1ncc(C(F)(F)F)s1)c1cncc(-c2cnc(NC(=O)/C=C/CN(C)C)cn2)c1` (centres unmarked) [Compound 63, (E)-4-(dimethylamino)-N-(5-(5-(1-oxo-1-((5-(trifluoromethyl)thiazol-2-yl)amino)propan-2-yl)pyridin-3-yl)pyrazin-2-yl)but-2-enamide], the figures for the IC50 (in test [1]; in the test on MV-4-11 cells) were 17.8 nM and 5.2 nM, respectively.
For the molecule `C[C@H](C(=O)Nc1ncc(C(F)(F)F)s1)c1cccc(-c2cnc(NC(=O)/C=C/CN3CCC(O)C3)cn2)c1` (stereo partly drawn) [Compound 119, (E)-4-(3-hydroxypyrrolidin-1-yl)-N-(5-(3-((S)-1-oxo-1-((5-(trifluoromethyl)thiazolyl)amino)propan-2-yl)phenyl)pyrazin-2-yl)but-2-enamide], the IC50 in test [1] was found to be 9 nM; in the test on MDA-MB-468 cells (72 hours), 44 nM.
With `C=CC(=O)Nc1ccc(-c2cccc([C@H](C)C(=O)Nc3ncc(C4CC4)s3)c2)cn1` [Compound 14], the IC50 in test [1] turned out to be 28 nM. For the same molecule, in the test with MV-4-11 cells, the inhibition at 0.1 µM was 100% and the IC50 worked out at 45.8 nM.
As to `CC(C(=O)Nc1ncc(C(F)(F)F)s1)c1cncc(-c2cnc(NC(=O)/C=C/CN3CCOCC3)cn2)c1` (centres unmarked) [Compound 74, (E)-4-morpholino-N-(5-(5-(1-oxo-1-((5-(trifluoromethyl)thiazol-2-yl)amino)propan-2-yl)pyridin-3-yl)pyrazin-2-yl)but-2-enamide], the IC50 in test [1] amounted to 77 nM; with MV-4-11 cells, 30.3 nM.
`CC(C(=O)Nc1ncc(Cl)s1)c1cncc(-c2cnc(NC(=O)/C=C/CN(C)C)cn2)c1` (centres unmarked) [Compound 73, (E)-N-(5-(5-(1-((5-chlorothiazol-2-yl)amino)-1-oxopropan-2-yl)pyridin-3-yl)pyrazin-2-yl)-4-(dimethylamino)but-2-enamide]: the results for the IC50 (in test [1]; with MV-4-11 cells) were 43.4 nM and 11 nM, respectively.
Take `C[C@H](C(=O)Nc1ncc(C2CC2)s1)c1cccc(-c2ccc(NC(=O)/C=C/CN(C)C)nc2)c1` [Compound 15]: the half-inhibitory concentration (IC50) in test [1] stood at 11 nM. Moreover, the inhibition at 0.1 µM in the test with MV-4-11 cells is 100%.
In the case of `CC(C(=O)Nc1ncc(C(F)(F)F)s1)c1cncc(-c2cnc(NC(=O)/C=C/CN(C)C)c(C#N)c2)c1` (centres unmarked) [Compound 108, (E)-N-(5-cyano-5′-(1-oxo-1-((5-(trifluoromethyl)thiazol-2-yl)amino)propan-2-yl)-[3,3′-bipyridin]-6-yl)-4-(dimethylamino)but-2-enamide], the IC50 in test [1] is 10.5 nM; in the test on MV-4-11 cells it was 7.1 nM.
Take `C[C@H](C(=O)Nc1ncc(C(F)(F)F)s1)c1cccc(-c2cnc(NC(=O)/C=C/CN(C)C)c(F)c2)c1` [Compound 99, (S,E)-4-(dimethylamino)-N-(3-fluoro-5-(3-(1-oxo-1-((5-(trifluoromethyl)thiazol-2-yl)amino)propan-2-yl)phenyl)pyridin-2-yl)but-2-enamide]: the IC50 in test [1] worked out at 7.6 nM; with MV-4-11 cells, 12.7 nM.
For the molecule `C[C@H](C(=O)Nc1ncc(C(F)(F)F)s1)c1cccc(-c2cnc(NC(=O)/C=C/CN(C)C)c(C#N)c2)c1` [Compound 101, (S,E)-N-(3-cyano-5-(3-(1-oxo-1-((5-(trifluoromethyl)thiazol-2-yl)amino)propan-2-yl)phenyl)pyridin-2-yl)-4-(dimethylamino)but-2-enamide], the 50% inhibitory concentration (IC50) in test [1] is 4.3 nM; with MV-4-11 cells, 12.3 nM.
Take `C=CC(=O)Nc1cnc(-c2cccc([C@H](C)C(=O)Nc3ncc(C4CC4)s3)c2)cn1` [Compound 22]: the results for the “Inhibition rate (%)” value with MDA-MB-468 cells (72 hours) and with MV-4-11 cells were 72% and 100%, respectively.
Regarding `C[C@H](C(=O)Nc1ncc(C2CCC2)s1)c1cccc(-c2cnc(NC(=O)/C=C/CN(C)C)cn2)c1` [Compound 104, (S,E)-N-(5-(3-(1-((5-cyclobutylthiazol-2-yl)amino)-1-oxopropan-2-yl)phenyl)pyrazin-2-yl)-4-(dimethylamino)but-2-enamide], the values for the IC50 (in test [1]; in the test on MV-4-11 cells) were 9 nM and 30.7 nM, respectively.
In the case of `C[C@H](C(=O)Nc1ncc(C(F)(F)F)s1)c1cccc(-c2cnc(NC(=O)/C=C/CN3CC[C@@H](F)C3)cn2)c1` [Compound 115, (E)-4-((R)-3-fluoropyrrolidin-1-yl)-N-(5-(3-((S)-1-oxo-1-((5-(trifluoromethyl)thiazol-2-yl)amino)propan-2-yl)phenyl)pyrazin-2-yl)but-2-enamide], the results for the IC50 (in test [1]; with HepG2 cells) were 17 nM and 12.6 nM, respectively.
Turning to `C=CC(=O)Nc1cnc(-c2cncc([C@H](C)C(=O)Nc3ncc(C(F)(F)F)s3)c2)cn1` [Compound 52, (S)-N-(5-(5-(1-oxo-1-((5-(trifluoromethyl)thiazol-2-yl)amino)propan-2-yl)pyridin-3-yl)pyrazin-2-yl)acrylamide], the 50% inhibitory concentration (IC50) in test [1] is 19.2 nM; with MV-4-11 cells, 4.5 nM.
On to `C=CC(=O)Nc1cnc(-c2cccc([C@H](C)C(=O)Nc3ncc(C(F)(F)F)s3)c2)cn1` [Compound 37, (S)-N-(5-(3-(1-oxo-1-((5-(trifluoromethyl)thiazol-2-yl)amino)propan-2-yl)phenyl)pyrazin-2-yl)acrylamide], for which, in test [1], the IC50 worked out at 17.8 nM. In the test on MV-4-11 cells, the inhibition at 0.1 µM was found to be 100%.
Consider `C=CC(=O)Nc1ccc(-c2cccc([C@H](C)C(=O)Nc3ncc(C4CC4)s3)c2)nn1` [Compound 28], for which the “Inhibition rate (%)” value with MDA-MB-468 cells (72 hours) came to 74%; in the test on MV-4-11 cells it was 100%.
`C[C@H](C(=O)Nc1ncc(C(F)(F)F)s1)c1cccc(-c2cnc(NC(=O)/C=C/CN3CC4CC3CO4)cn2)c1` (stereo partly drawn) [Compound 96, (E)-4-(2-oxa-5-azabicyclo[2.2.1]heptan-5-yl)-N-(5-(3-((S)-1-oxo-1-((5-(trifluoromethyl)thiazol-2-yl)amino)propan-2-yl)phenyl)pyrazin-2-yl)but-2-enamide]: the concentration for half-maximal inhibition (IC50) was 7.6 nM in test [1] and 43.9 nM in the test with MV-4-11 cells.
On the same counts, the results for `C=CC(=O)Nc1ccc(-c2cncc(C(C)C(=O)Nc3ncc(C(F)(F)F)s3)c2)cn1` (centres unmarked) [Compound 82, N-(5′-(1-oxo-1-((5-(trifluoromethyl)thiazol-2-yl)amino)propan-2-yl)-[3,3′-bipyridin]-6-yl)acrylamide] are 36 nM and 9.1 nM.
For `CC(C(=O)Nc1ncc(C(F)(F)F)s1)c1cncc(-c2cnc(NC(=O)/C=C/CN3CC4CC3CO4)cn2)c1` (centres unmarked) [Compound 83, (E)-4-(2-oxa-5-azabicyclo[2.2.1]heptan-5-yl)-N-(5-(5-(1-oxo-1-((5-(trifluoromethyl)thiazol-2-yl)amino)propan-2-yl)pyridin-3-yl)pyrazin-2-yl)but-2-enamide], the IC50 is 23 nM in test [1] and 6.9 nM in the test on MV-4-11 cells.
Take `C=CC(=O)Nc1ncc(-c2cccc([C@H](C)C(=O)Nc3ncc(C4CC4)s3)c2)cc1F` [Compound 29]: the “Inhibition rate (%)” value in the test on MDA-MB-468 cells (72 hours) is given as 75%; in the test on MV-4-11 cells, 100%.
For the molecule `C=CC(=O)Nc1cncc(-c2cccc([C@H](C)C(=O)Nc3ncc(C4CC4)s3)c2)n1` [Compound 16], the “Inhibition rate (%)” value is 53% in the test with MDA-MB-468 cells (72 hours) and 90% with MV-4-11 cells.
Regarding `CCc1cnc(NC(=O)[C@@H](C)c2cccc(-c3cnc(NC(=O)/C=C/CN4CC5CC4CO5)c(C#N)c3)c2)s1` (stereo partly drawn) [Compound 123, (E)-4-(2-oxa-5-azabicyclo[2.2.1]heptan-5-yl)-N-(3-cyano-5-(3-((S)-1-((5-ethylthiazol-2-yl)amino)-1-oxopropan-2-yl)phenyl)pyridin-2-yl)but-2-enamide], the IC50 in test [1] was found to be 5.3 nM.
